From paper PMC13626384 (Journal of medicinal chemistry, 2025)
Where two headings read alike, the source gives them in different places.

Legend:
[1] = biological target: human immunoproteasome (i20S) β2 (Homo sapiens, UniProt P40306+P49720); experiment: Proteasome subunit inhibition, i20S β2; type: biochemical
[2] = biological target: human immunoproteasome (i20S) β1 (Homo sapiens, UniProt P28065+P40306); experiment: Proteasome subunit inhibition, i20S β1; type: biochemical
[3] = PAMPA-BBB permeability assay; conditions: PAMPA-BBB; for recovery / Papp: PAMPA; for recovery: % Recovery; for Papp: Mean Permeability
[4] = Liver microsomal stability; conditions: mouse liver microsomes
[5] = biological target: human immunoproteasome (i20S) β5 (Homo sapiens, UniProt P20618+P28062); experiment: Proteasome subunit inhibition, i20S β5; type: biochemical
SF188 cell line = experiment: Cytotoxicity against SF188 cells; type: cell-based, human
H460 cell line = experiment: Cytotoxicity against H460 cells; type: cell-based
D283-med cell line = experiment: Cytotoxicity against D283-med cells; type: cell-based, human
Caco-2 cells = experiment: Caco-2 cell permeability and efflux; type: in vitro ADME, human
[6] = tested on: human foreskin fibroblasts (HFF-1) cell line; experiment: Cytotoxicity against HFF-1 cells; type: cell-based; conditions: read-out: HFF-1 IC50; non-cancerous fibroblasts
Plasma stability = type: in vitro ADME; conditions: for Plasma Stability % remaining: mouse plasma
in vitro = conditions: mouse liver microsomes
mice = experiment: Toxicity observation in the PK study; type: in vivo; conditions: 1 mg/kg i.v.
P-gp = experiment: Caco-2 cell permeability and efflux; type: in vitro ADME, human; conditions: human, Caco-2
[7] = Caco-2 cell permeability and efflux; type: in vitro ADME, human; conditions: human; for Papp A→B / Papp B→A: Caco-2
[8] = biological target: human constitutive proteasome (c20S) β2 (Homo sapiens, UniProt P49720+Q99436); experiment: Proteasome subunit inhibition, c20S β2; type: biochemical
[9] = In vivo pharmacokinetics, plasma and brain; parameters: species or system Male C57BL/6 mice; conditions: mice
[10] = biological target: human constitutive proteasome (c20S) β5 (Homo sapiens, UniProt P20618+P28074); experiment: Proteasome subunit inhibition, c20S β5; type: biochemical
[11] = biological target: human constitutive proteasome (c20S) β1 (Homo sapiens, UniProt P28072+Q99436); experiment: Proteasome subunit inhibition, c20S β1; type: biochemical
Whole blood stability = type: in vitro ADME; conditions: whole blood incubation, 2 hours
[12] = read-out: D283-med IC50, medulloblastoma cell line
[13] = Homo sapiens, SF-188, read-out: SF188 IC50, glioblastoma cell line
[14] = Homo sapiens, D283 Med, read-out: D283-med IC50, medulloblastoma cell line
[15] = Caco-2, % Recovery (A-B), Caco-2, A-B direction
[16] = Caco-2, % Recovery (B-A), Caco-2, B-A direction

| SMILES | Microsomal Stability Clearance Category [4] | IC50 (D283-med cell line; [12]) [nM] | Plasma Stability % remaining (Plasma stability; after 2 hr) [after 2 hr %] | half-life (in vitro) [min] | IC50 [1] [nM] | IC50 [2] [nM] | recovery [3] [%] | Papp [3] [×10⁻⁶ cm/s] | IC50 [5] [nM] | IC50 (SF188 cell line; [13]) [nM] | IC50 (D283-med cell line; [14]) [nM] | Efflux Ratio (P-gp) | Papp A→B [7] [×10⁻⁶ cm/s] | Papp B→A [7] [×10⁻⁶ cm/s] | recovery [7, 15] [%] | recovery [7, 16] [%] | IC50 [8] [nM] | IC50 [10] [nM] | IC50 [11] [nM] | other results |
| --- | --- | --- | --- | --- | --- | --- | --- | --- | --- | --- | --- | --- | --- | --- | --- | --- | --- | --- | --- | --- |
| CC(C)C[C@H](NC(=O)[C@@H]1Cc2c(F)c(F)c(c(F)c2F)Sc2cccc(c2)CC(=O)NC(C)(C)C(=O)N1)C(=O)[C@@]1(C)CO1 [Compound 31, (S)-3^2,3^3,3^5,3^6-Tetrafluoro-8,8-dimethyl-N-((S)-4-methyl-1-((R)-2-methyloxiran-2-yl)-1-oxopentan-2-yl)-7,10-dioxo-2-thia-6,9-diaza-1(1,3),3(1,4)-dibenzenacycloundecaphane-5-carboxamide] | High | 57 ± 14 | 81 |  |  |  |  |  |  |  |  |  |  |  |  |  |  |  |  | IC50 ([1]; read-out: i20S β2 IC50 ± SD, read 60 to 90 minutes after start): 1060 ± 121 nM; IC50 ([2]; read-out: i20S β1 IC50 ± SD, read 60 to 90 minutes after start): 207 ± 14.3 nM; % Recovery [3]: 64%; Mean Permeability [3]: 3.70 10^−6 cm/sec; Microsomal Stability mCLint [4]: 182 µL/min/mg; Microsomal Stability t1/2 [4]: 8 min; IC50 ([5]; read-out: i20S β5 IC50 ± SD, read 60 to 90 minutes after start): 763 ± 199 nM; IC50 (SF188 cell line; read-out: SF188 IC50, glioblastoma cell line): 24 ± 9 nM; IC50 (H460 cell line; read-out: H460 IC50, non-small cell lung cancer cell line): 175 ± 16 nM; Efflux Ratio (Caco-2 cells; Caco-2): 17.6; % Recovery (A-B) (Caco-2 cells; Caco-2, A-B direction): 94%; % Recovery (B-A) (Caco-2 cells; Caco-2, B-A direction): 73%; Pe (A-B) (Caco-2 cells; Caco-2, apical to basolateral): 3.6 10^−6 cm/sec; Pe (B-A) (Caco-2 cells; Caco-2, basolateral to apical): 63.0 10^−6 cm/sec; IC50 [6]: 122 ± 14 nM |
| CC(C)C[C@H](NC(=O)[C@@H]1CS(=O)(=O)CCCCCCCCCC(=O)N[C@@H](C(C)C)C(=O)N1)C(=O)[C@@]1(C)CO1 [Compound 40, (3R,6S)-6-Isopropyl-N-((S)-4-methyl-1-((R)-2-methyloxiran-2-yl)-1-oxopentan-2-yl)-5,8-dioxo-1-thia-4,7-diazacycloheptadecane-3-carboxamide 1,1-dioxide] | High | 2.26 ± 0.26 | 94 | < 5 | 23 ± 1.6 | 144 ± 9.2 | 77 | 3.34 | 16 ± 2 | 6.7 ± 0.3 | 2.3 | 4.8 | 10.1 | 48.8 | 91 | 89 | 39.4 ± 6.3 | 7.5 ± 0.6 | 767 ± 177 | microsomal CLint (in vitro): 323 µL/min/mg; Signs of toxicity (mice): lack of toxicity; Levels in brain tissues ([9]; 1 mg/kg i.v.): failed to achieve detectable levels; Plasma concentrations after dosing ([9]; 1 mg/kg i.v.): negligible plasma concentrations beyond 5 minutes post-dosing; Plasma concentrations after dosing ([9]; 10 mg/kg): did not exhibit significant plasma concentrations beyond 5 minutes post-administration; Whole blood retention (Whole blood stability): ~ 15%; remaining at 5 h (Plasma stability; mouse, plasma, Plasma Stability % remaining, after 5 hr): > 75% |
| CC(C)C[C@H](NC(=O)[C@@H]1CSCCOCCOCCC(=O)N[C@@H](C(C)C)C(=O)N1)C(=O)[C@@]1(C)CO1 [Compound 41, (9R,12S)-12-Isopropyl-N-((S)-4-methyl-1-((R)-2-methyloxiran-2-yl)-1-oxopentan-2-yl)-11,14-dioxo-1,4-dioxa-7-thia-10,13-diazacyclohexadecane-9-carboxamide] |  |  |  |  | 277 ± 49.1 | 49 ± 2.2 | 98 | 0.22 | 4900 ± 2160 | 113 ± 9 | 90 ± 8 | 27.6 | 0.75 | 20.8 | 102 | 101 | 110 ± 20.3 | 390 ± 50.7 | 484 ± 33 |  |
| C[C@@]12OC(=O)[C@]1([C@@H](O)[C@@H]1C=CCCC1)NC(=O)[C@@H]2CCCl [Marizomib, reference compound] | High |  |  | < 5 | 207 ± 22.3 | 40.5 ± 1.7 | 2 | 0.13 |  |  |  |  |  |  |  |  |  |  | 336 ± 27.2 | IC50 (SF188 cell line; Homo sapiens, SF-188, read-out: SF188 IC50): 22 ± 4 nM; IC50 (H460 cell line; Homo sapiens, NCI-H460, read-out: H460 IC50): 73 ± 6 nM; IC50 (D283-med cell line; Homo sapiens, D283 Med, read-out: D283-med IC50): 70 ± 3 nM; remaining at 2 h (Plasma stability; mouse, plasma, Plasma Stability % remaining, after 2 hr): 20% |
